Assay results from ChEMBL document CHEMBL4219154, “Design, synthesis, nuclear localization, and biological activity of a fluorescent duocarmycin analog, HxTfA” (Bioorg Med Chem Lett, 2018).
The source made the active and inactive calls. The calls are words filed in the database; no cut-off is given here.

How the values were obtained:
A549 [1] = experiment: Cytotoxicity against human A549 cells after 3 days by MTT assay; assay type: functional, cell-based; details: A549, 72 h
Escherichia coli [2] = experiment: Alkylating activity at N3 position of 5'-AAAAA-3' (865) in Escherichia coli pUC18 DNA at 0.1 uM after 5 hrs by electrophoresis analysis; assay type: functional
A549 [3] = experiment: Cytotoxicity against human A549 cells after 4 days by MTT assay; assay type: functional, cell-based; details: A549, 96 h
A549 [4] = experiment: Induction of apoptosis in human A549 cells assessed as increase in gamma-H2AX level at 0.1 to 5 uM incubated for 5 hrs followed by 24 hrs incubation in drug free medium by confocal microscopy; assay type: functional, cell-based
A549 [5] = experiment: Induction of apoptosis in human A549 cells assessed as decrease in survivin level at 0.1 uM incubated for 5 hrs followed by 24 hrs incubation in drug free medium by immunoblotting based confocal microscopy; assay type: functional, cell-based
B16 = experiment: Cytotoxicity against mouse B16 cells after 3 days by MTT assay; assay type: functional, cell-based; details: B16, 72 h
Plasmodium falciparum = experiment: Antiplasmodial activity against Plasmodium falciparum 3D7 infected in red blood cells after 48 hrs; assay type: functional, organism-based; details: 3D7, 48 h
A549 [6] = experiment: Induction of apoptosis in human A549 cells assessed as increase in gamma-H2AX level at 0.1 to 10 uM incubated for 5 hrs followed by 24 hrs incubation in drug free medium by immunofluorescence assay; assay type: functional, cell-based
A549 [7] = experiment: Induction of apoptosis in human A549 cells assessed as decrease in Bcl-xL level at 0.05 to 20 uM incubated for 5 hrs followed by 24 hrs incubation in drug free medium by immunoblotting based confocal microscopy; assay type: functional, cell-based
A549 [8] = experiment: Induction of apoptosis in human A549 cells assessed as decrease in survivin level at 1 to 20 uM incubated for 5 hrs followed by 24 hrs incubation in drug free medium by immunoblotting based confocal microscopy; assay type: functional, cell-based
A549 [9] = experiment: Induction of apoptosis in human A549 cells assessed as increase in cleaved caspase 3 level at 1 uM incubated for 5 hrs followed by 24 hrs incubation in drug free medium by immunofluorescence assay; assay type: functional, cell-based
[10] = Drug uptake in nucleus of human A549 cells at 50 to 100 uM after 24 hrs by mitrotracker red CMXRos staining based fluorescence microscopy; assay type: ADME, subcellular; details: a549, 24 h
Escherichia coli [11] = experiment: Induction of DNA cleavage at AT-mixed sequence 5'-TTTTA-3'(843) in Escherichia coli pUC18 DNA at 0.1 to 30 uM after 5 hrs by electrophoresis analysis
Escherichia coli [12] = experiment: Alkylating activity at N3 position of 5'-AAAAA-3' (865) in Escherichia coli pUC18 DNA at 1 uM after 5 hrs by electrophoresis analysis; assay type: functional
A549 [13] = experiment: Induction of apoptosis in human A549 cells assessed as decrease in Bcl-xL level at 0.1 to 20 uM incubated for 5 hrs followed by 24 hrs incubation in drug free medium by immunoblotting based confocal microscopy; assay type: functional, cell-based
[14] = Drug uptake in nucleus of human A549 cells at 1 uM after 24 hrs by propidium iodide staining based confocal microscopy; assay type: ADME, subcellular; details: a549, 24 h

Row | Drug uptake [10] | Activity (Escherichia coli [11]) | Drug uptake [14] | Compound | IC50 (A549 [1]) [nM] | Activity (Escherichia coli [2]) | IC50 (A549 [3]) [nM] | Activity (A549 [4]) | Activity (A549 [5]) | IC50 (B16) [nM] | IC50 (Plasmodium falciparum) [nM] | Activity (A549 [6]) | Activity (A549 [7]) | Activity (A549 [8]) | Activity (A549 [9]) | Activity (Escherichia coli [12]) | Activity (A549 [13])
1 |  |  |  | COc1cc2cc(C(=O)N3CC(CCl)c4c3cc(O)c3ccoc43)[nH]c2c(OC)c1OC (stereo not given) | 53 | Active | 3.7 | Active | Active | 40 | 0.064 | Active | inactive |  |  |  | 
2 | Active | Active | Active | COc1ccc(-c2nc3ccc(C(=O)N4CC(CCl)c5c4cc(O)c4ccoc54)cc3[nH]2)cc1 (stereo not given) |  |  | 26 | Active |  |  | 3.7 | Active |  | Active | Active | Active | inactive
